Source: patent US8785429B2, “Dihydropyrrolonaphthyridinone compounds as inhibitors of JAK” (Takeda Pharmaceutical Company Limited, priority 2009, dated 2014)

What was measured:
JAK3 = biological target: T1, JAK3 (Homo sapiens, UniProt P52333); assay: Assay for JAK3 Inhibition (phosphorylation of FAM-labeled substrate, Caliper LC-3000); type: biochemical; settings: −log10(IC50), IC50 is the molar concentration at 50% inhibition; read-out: JAK3 pIC50 (converted)
T1 construct: purchased Invitrogen
T1 sequence (P52333 1-1124): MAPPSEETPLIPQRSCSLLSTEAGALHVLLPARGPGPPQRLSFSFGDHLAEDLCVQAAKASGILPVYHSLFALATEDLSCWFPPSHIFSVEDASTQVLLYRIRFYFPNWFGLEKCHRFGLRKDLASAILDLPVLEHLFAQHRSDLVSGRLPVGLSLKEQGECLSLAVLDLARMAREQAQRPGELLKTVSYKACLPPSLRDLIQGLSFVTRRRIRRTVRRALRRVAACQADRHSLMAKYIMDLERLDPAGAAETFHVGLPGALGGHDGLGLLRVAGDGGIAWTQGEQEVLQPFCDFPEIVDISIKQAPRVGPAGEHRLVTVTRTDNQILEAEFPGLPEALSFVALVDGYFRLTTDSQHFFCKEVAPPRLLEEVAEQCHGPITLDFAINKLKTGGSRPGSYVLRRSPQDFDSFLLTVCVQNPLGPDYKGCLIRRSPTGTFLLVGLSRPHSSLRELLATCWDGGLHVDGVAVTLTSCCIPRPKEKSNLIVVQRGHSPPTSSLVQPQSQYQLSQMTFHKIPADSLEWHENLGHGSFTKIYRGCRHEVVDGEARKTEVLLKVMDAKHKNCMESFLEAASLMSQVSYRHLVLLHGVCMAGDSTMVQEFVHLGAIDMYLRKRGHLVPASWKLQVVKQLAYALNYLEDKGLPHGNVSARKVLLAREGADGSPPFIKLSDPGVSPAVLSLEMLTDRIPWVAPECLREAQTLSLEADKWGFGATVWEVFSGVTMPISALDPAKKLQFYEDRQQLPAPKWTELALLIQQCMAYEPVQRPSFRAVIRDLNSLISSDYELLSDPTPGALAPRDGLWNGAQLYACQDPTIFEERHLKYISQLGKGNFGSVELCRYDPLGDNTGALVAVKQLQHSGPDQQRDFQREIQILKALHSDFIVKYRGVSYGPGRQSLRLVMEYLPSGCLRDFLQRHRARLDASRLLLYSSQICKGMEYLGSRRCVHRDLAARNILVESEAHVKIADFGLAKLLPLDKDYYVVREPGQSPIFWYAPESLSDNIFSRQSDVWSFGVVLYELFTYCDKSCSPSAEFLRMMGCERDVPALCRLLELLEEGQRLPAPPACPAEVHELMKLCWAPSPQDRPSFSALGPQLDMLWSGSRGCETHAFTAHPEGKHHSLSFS

JAK2 = biological target: T2, JAK2 (Homo sapiens, UniProt O60674); assay: Assay for JAK2 Inhibition (phosphorylation of FAM-labeled substrate, Caliper LC-3000); type: biochemical; settings: −log10(IC50), IC50 is the molar concentration at 50% inhibition; read-out: JAK2 pIC50 (converted)
T2 construct: purchased Invitrogen
T2 sequence (O60674 whole entry): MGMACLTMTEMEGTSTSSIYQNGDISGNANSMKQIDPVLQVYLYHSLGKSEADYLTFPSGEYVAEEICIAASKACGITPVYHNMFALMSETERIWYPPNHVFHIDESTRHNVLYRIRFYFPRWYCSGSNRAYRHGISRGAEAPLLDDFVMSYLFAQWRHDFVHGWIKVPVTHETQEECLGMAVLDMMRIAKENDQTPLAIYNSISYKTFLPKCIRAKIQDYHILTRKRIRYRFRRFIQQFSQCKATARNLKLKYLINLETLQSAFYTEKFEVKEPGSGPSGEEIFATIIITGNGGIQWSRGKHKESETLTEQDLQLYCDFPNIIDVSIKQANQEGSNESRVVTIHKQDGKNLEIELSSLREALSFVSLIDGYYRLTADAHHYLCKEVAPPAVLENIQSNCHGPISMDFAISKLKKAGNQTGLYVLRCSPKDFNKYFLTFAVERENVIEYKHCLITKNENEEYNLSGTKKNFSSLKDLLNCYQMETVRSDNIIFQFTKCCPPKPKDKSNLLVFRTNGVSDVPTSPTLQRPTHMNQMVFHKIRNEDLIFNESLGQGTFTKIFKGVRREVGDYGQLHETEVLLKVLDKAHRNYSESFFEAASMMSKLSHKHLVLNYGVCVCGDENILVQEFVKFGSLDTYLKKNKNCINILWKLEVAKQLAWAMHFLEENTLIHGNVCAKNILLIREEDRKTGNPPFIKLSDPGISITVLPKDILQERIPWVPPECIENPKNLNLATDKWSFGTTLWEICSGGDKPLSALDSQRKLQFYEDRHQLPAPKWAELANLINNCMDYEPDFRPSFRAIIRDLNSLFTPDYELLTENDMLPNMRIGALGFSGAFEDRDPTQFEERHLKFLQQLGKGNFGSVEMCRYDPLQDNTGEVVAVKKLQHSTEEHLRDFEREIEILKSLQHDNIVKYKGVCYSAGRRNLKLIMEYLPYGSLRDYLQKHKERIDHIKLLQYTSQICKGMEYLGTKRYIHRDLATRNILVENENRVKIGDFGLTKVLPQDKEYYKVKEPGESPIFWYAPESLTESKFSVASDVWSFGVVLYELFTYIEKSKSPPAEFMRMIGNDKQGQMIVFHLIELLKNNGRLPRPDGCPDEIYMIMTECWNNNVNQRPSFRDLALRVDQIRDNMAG

| Compound | IC50 (JAK3) [nM] | IC50 (JAK2) [nM] |
| --- | --- | --- |
| CC(C#N)NC(=O)[C@@H](C(C)C)N1Cc2c(F)cnc3[nH]cc(c23)C1=O (stereo partly drawn) [Example 75, (2R)—N-(1-cyanoethyl)-2-(6-fluoro-3-oxopyrrolo[4,3,2-de][2,6]naphthyridin-4(1H,3H,5H)-yl)-3-methylbutanamide] | 31.6 | 794 |
| CC(C)[C@H](C(=O)N1CC(F)(F)C1)N1Cc2c(F)cnc3[nH]cc(c23)C1=O [Example 76, (R)-4-(1-(3,3-difluoroazetidin-1-yl)-3-methyl-1-oxobutan-2-yl)-6-fluoro-4,5-dihydropyrrolo[4,3,2-de][2,6]naphthyridin-3(1 H)-one] | 63.1 | 1000 |
| CC(C)[C@H](C(=O)N1CCS(=O)(=O)C1)N1Cc2c(F)cnc3[nH]cc(c23)C1=O [Example 77, (R)-4-(1-(1,1-dioxidothiazolidin-3-yl)-3-methyl-1-oxobutan-2-yl)-6-fluoro-4,5-dihydropyrrolo[4,3,2-de][2,6]naphthyridin-3(1H)-one] | 63.1 | 1580 |
| CC(C)[C@H](C(=O)N(C)CCS(C)(=O)=O)N1Cc2c(F)cnc3[nH]cc(c23)C1=O [Example 78, (R)-2-(6-fluoro-3-oxopyrrolo[4,3,2-de][2,6]naphthyridin-4(1H,3H,5H)-yl)-N,3-dimethyl-N-(2-(methylsulfonyl)ethyl)butanamide] | 3980 | 10000 |
| CC(C)[C@H](C(=O)N(C)CC#N)N1Cc2c(F)cnc3[nH]cc(c23)C1=O [Example 79, (R)—N-(cyanomethyl)-2-(6-fluoro-3-oxopyrrolo[4,3,2-de][2,6]naphthyridin-4(1H,3H,5H)-yl)-N,3-dimethylbutanamide] | 126 | 2510 |
| CC(C)[C@H](C(=O)N1CC(C(F)F)C1)N1Cc2c(F)cnc3[nH]cc(c23)C1=O [Example 80, (R)-4-(1-(3-(difluoromethyl)azetidin-1-yl)-3-methyl-1-oxobutan-2-yl)-6-fluoro-4,5-dihydropyrrolo[4,3,2-de][2,6]naphthyridin-3(1H)-one] | 15.8 | 398 |
| CC(C)[C@H](C(=O)N1CC(C#N)C1)N1Cc2ccnc3[nH]cc(c23)C1=O [Example 81, (R)-1-(3-methyl-2-(3-oxopyrrolo[4,3,2-de][2,6]naphthyridin-4(1H,3H,5H)-yl)butanoyl)azetidine-3-carbonitrile] | 5.01 | 126 |
| CC(C)(C)[C@H](C(=O)N1CC(C#N)C1)N1Cc2ccnc3[nH]cc(c23)C1=O [Example 82, (R)-1-(3,3-dimethyl-2-(3-oxopyrrolo[4,3,2-de][2,6]naphthyridin-4(1H,3H,5H)-yl)butanoyl)azetidine-3-carbonitrile] | 2 | 39.8 |
| CC(C)(C)[C@H](C(=O)NCC#N)N1Cc2ccnc3[nH]cc(c23)C1=O [Example 83, (R)—N-(cyanomethyl)-3,3-dimethyl-2-(3-oxopyrrolo[4,3,2-de][2,6]naphthyridin-4(1H,3H,5H)-yl)butanamide] | 12.6 | 251 |
| CC(C)[C@H](C(=O)N1CCC[C@H]1C#N)N1Cc2c(Cl)cnc3[nH]cc(c23)C1=O [Example 84, (S)-1-((R)-2-(6-chloro-3-oxopyrrolo[4,3,2-de][2,6]naphthyridin-4(1H,3H,5H)-yl)-3-methylbutanoyl)pyrrolidine-2-carbonitrile] | 200 | 3160 |
| CC(C)[C@H](C(=O)N1CCC[C@@H]1C#N)N1Cc2c(Cl)cnc3[nH]cc(c23)C1=O [Example 85, (R)-1-((R)-2-(6-chloro-3-oxopyrrolo[4,3,2-de][2,6]naphthyridin-4(1H,3H,5H)-yl)-3-methylbutanoyl)pyrrolidine-2-carbonitrile] | 100 | 1580 |
| CC(C)[C@H](C(=O)N1C[C@@H](F)C[C@H]1C#N)N1Cc2c(Cl)cnc3[nH]cc(c23)C1=O [Example 86, (2S,4S)-1-((R)-2-(6-chloro-3-oxopyrrolo[4,3,2-de][2,6]naphthyridin-4(1H,3H,5H)-yl)-3-methylbutanoyl)-4-fluoropyrrolidine-2-carbonitrile] | 25.1 | 398 |
| Cc1cnc2[nH]cc3c2c1CN([C@@H](C(=O)N1CC(C#N)C1)C(C)(C)C)C3=O [Example 87, (R)-1-(3,3-dimethyl-2-(6-methyl-3-oxopyrrolo[4,3,2-de][2,6]naphthyridin-4(1H,3H,5H)-yl)butanoyl)azetidine-3-carbonitrile] | 3.16 | 50.1 |
| Cc1cnc2[nH]cc3c2c1CN([C@@H](C(=O)N1CC(C#N)C1)C(C)C)C3=O [Example 88, (R)-1-(3-methyl-2-(6-methyl-3-oxopyrrolo[4,3,2-de][2,6]naphthyridin-4(1H,3H,5H)-yl)butanoyl)azetidine-3-carbonitrile] | 1.58 | 25.1 |
